# According to article PMC4406737, “Meroterpenoid Chrodrimanins Are Selective and Potent Blockers of Insect GABA-Gated Chloride Channels” (PLoS ONE, 2015):
# Legend:
# [1] = target: T1, B. mori GABAR RDL (wild-type isoform, exon 3b and exon 6d) (Bombyx mori, UniProt U3TMA1); experiment: two-electrode voltage clamp, Xenopus oocytes, block of GABA peak current; format: cell-based
# T1 construct: full cDNA in pcDNA3.1, cRNA expressed in Xenopus laevis oocytes; RDL injected alone (homomer)
# T1 sequence (U3TMA1 29-482): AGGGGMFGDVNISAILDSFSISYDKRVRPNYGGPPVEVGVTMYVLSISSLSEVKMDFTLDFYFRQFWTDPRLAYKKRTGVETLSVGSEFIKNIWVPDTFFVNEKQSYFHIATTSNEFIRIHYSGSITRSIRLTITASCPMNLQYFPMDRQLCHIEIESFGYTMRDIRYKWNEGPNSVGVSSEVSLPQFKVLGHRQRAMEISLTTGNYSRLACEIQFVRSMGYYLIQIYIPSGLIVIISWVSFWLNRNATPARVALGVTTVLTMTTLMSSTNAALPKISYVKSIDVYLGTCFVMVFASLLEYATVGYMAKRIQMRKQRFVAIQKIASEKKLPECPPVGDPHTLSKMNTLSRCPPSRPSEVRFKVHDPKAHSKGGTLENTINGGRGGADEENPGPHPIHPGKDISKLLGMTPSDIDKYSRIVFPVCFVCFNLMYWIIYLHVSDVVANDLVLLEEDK
# [2] = target: T1, B. mori GABAR RDL (wild-type isoform, exon 3b and exon 6d); experiment: two-electrode voltage clamp, Xenopus oocytes, agonist concentration-response; format: cell-based
Structure (SMILES),IC50 [1] [µM],EC50 [2] [µM]
N#Cc1nn(-c2c(Cl)cc(C(F)(F)F)cc2Cl)c(N)c1[S+]([O-])C(F)(F)F (centres unmarked) [fipronil],0.0394,–
NCCCC(=O)O [GABA],–,41.1
